Results reported in ChEMBL document CHEMBL1201861, “Genomics of Drug Sensitity in Cancer screening data, Wellcome Trust Sanger Institute”.
pIC50: −log10 of the molar value.

Columns and labels:
H-EMC-SS = assay: cells; type: functional, cell-based; settings: Homo sapiens
Description: SANGER: Inhibition of human H-EMC-SS cell growth in a cell viability assay.

U-118-MG = assay: cells; type: functional, cell-based; settings: Homo sapiens
Description: SANGER: Inhibition of human U-118-MG cell growth in a cell viability assay.

MCF7 = assay: cells; type: functional, cell-based; settings: Homo sapiens;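 also: growth inhibition of human MCF7 cells, read out with a cell viability assay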
Description: SANGER: Inhibition of human MCF7 cell growth in a cell viability assay.

P12-Ichikawa = assay: cells; type: functional, cell-based; settings: Homo sapiens
TI-73 = assay: cells; type: functional, cell-based; settings: Homo sapiens;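 also: cell viability assay measuring how much compounds suppress growth of the cultured cell line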
Description: SANGER: Inhibition of human TI-73 cell growth in a cell viability assay.

HCC38 = assay: cells; type: functional, cell-based; settings: Homo sapiens;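 also: cell viability assay on the human HCC38 cell line, with IC50 marking the concentration that inhibits cell growth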
Description: SANGER: Inhibition of human HCC38 cell growth in a cell viability assay.

A-427 = assay: cells; type: functional, cell-based; settings: Homo sapiens;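 also: growth inhibition of human A-427 cells, read out by a cell viability assay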
Description: SANGER: Inhibition of human A427 cell growth in a cell viability assay.

SKG-IIIa = assay: cells; type: functional, cell-based; settings: Homo sapiens;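 also: cell growth inhibition, read out with a cell viability assay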
Description: SANGER: Inhibition of human SKG-IIIa cell growth in a cell viability assay.

NCI-H1563 = assay: cells; type: functional, cell-based; settings: Homo sapiens;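 also: growth inhibition of human NCI-H1563 cells, read out with a cell viability assay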
Description: SANGER: Inhibition of human NCI-H1563 cell growth in a cell viability assay.

BFTC-909 = assay: cells; type: functional, cell-based; settings: Homo sapiens
Description: SANGER: Inhibition of human BFTC-909 cell growth in a cell viability assay.

RERF-LC-MS = assay: cells; type: functional, cell-based; settings: Homo sapiens;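 also: growth inhibition of human RERF-LC-MS cells, read out by a cell viability assay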
Description: SANGER: Inhibition of human RERF-LC-MS cell growth in a cell viability assay.

VMRC-RCZ = assay: cells; type: functional, cell-based; settings: Homo sapiens
Description: SANGER: Inhibition of human VMRC-RCZ cell growth in a cell viability assay.

YAPC = assay: cells; type: functional, cell-based; settings: Homo sapiens;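 also: growth inhibition of YAPC cells, measured with a cell viability assay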
Description: SANGER: Inhibition of human YAPC cell growth in a cell viability assay.

CAKI-1 = assay: cells; type: functional, cell-based; settings: Homo sapiens;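 also: growth inhibition of CAKI-1 cells, measured by a cell viability assay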
Description: SANGER: Inhibition of human CAKI-1 cell growth in a cell viability assay.

DK-MG = assay: cells; type: functional, cell-based; settings: Homo sapiens;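 also: growth inhibition of DK-MG cells, read out with a cell viability assay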
Description: SANGER: Inhibition of human DK-MG cell growth in a cell viability assay.

D-566MG = assay: cells; type: functional, cell-based; settings: Homo sapiens
SJRH30 = assay: cells; type: functional, cell-based; settings: Homo sapiens;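 also: growth inhibition of human SJRH30 cells, read out with a cell viability assay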
Description: SANGER: Inhibition of human SJRH30 cell growth in a cell viability assay.

HCC1395 = assay: cells; type: functional, cell-based; settings: Homo sapiens;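 also: growth inhibition of HCC1395 cells, read out by a cell viability assay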
Description: SANGER: Inhibition of human HCC1395 cell growth in a cell viability assay.

HuP-T3 = assay: cells; type: functional, cell-based; settings: Homo sapiens;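 also: HuP-T3 cell growth inhibition, read out with a cell viability assay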
Description: SANGER: Inhibition of human HuP-T3 cell growth in a cell viability assay.

EGI-1 = assay: cells; type: functional, cell-based; settings: Homo sapiens;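 also: cell viability readout used to gauge growth inhibition of EGI-1 cells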
Description: SANGER: Inhibition of human EGI-1 cell growth in a cell viability assay.

647-V = assay: cells; type: functional, cell-based; settings: Homo sapiens;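 also: growth inhibition of 647-V cells, read out with a cell viability assay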
Description: SANGER: Inhibition of human 647-V cell growth in a cell viability assay.

H9 = assay: cells; type: functional, cell-based; settings: Homo sapiens
Description: SANGER: Inhibition of human H9 cell growth in a cell viability assay.

BALL-1 = assay: cells; type: functional, cell-based; settings: Homo sapiens;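 also: growth inhibition of BALL-1 cells, read out with a cell viability assay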
Description: SANGER: Inhibition of human BALL-1 cell growth in a cell viability assay.

LCLC-97TM1 = assay: cells; type: functional, cell-based; settings: Homo sapiens;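 also: cell viability assay measuring growth inhibition of human LCLC-97TM1 cells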
Description: SANGER: Inhibition of human LCLC-97TM1 cell growth in a cell viability assay.

CAL-33 = assay: cells; type: functional, cell-based; settings: Homo sapiens;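 also: growth inhibition of CAL-33 cells, read out with a cell viability assay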
Description: SANGER: Inhibition of human CAL-33 cell growth in a cell viability assay.

NB7 = assay: cells; type: functional, cell-based, Homo sapiens; settings: Homo sapiens, NB7;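 also: growth inhibition of NB7 cells, read out with a cell viability assay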
Description: SANGER: Inhibition of human NB7 cell growth in a cell viability assay.

IGROV-1 = assay: cells; type: functional, cell-based; settings: Homo sapiens;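 also: reduction of IGROV-1 cell growth, read out with a viability assay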
Description: SANGER: Inhibition of human IGROV-1 cell growth in a cell viability assay.

NCI-H1666 = assay: cells; type: functional, cell-based; settings: Homo sapiens;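 also: growth inhibition of the cell line, read out with a cell viability assay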
Description: SANGER: Inhibition of human NCI-H1666 cell growth in a cell viability assay.

ME-180 = assay: cells; type: functional, cell-based; settings: Homo sapiens;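 also: cell viability assay measuring growth inhibition of ME-180 cells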
Description: SANGER: Inhibition of human ME-180 cell growth in a cell viability assay.

EW-22 = assay: cells; type: functional, cell-based; settings: Homo sapiens;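 also: growth inhibition of the EW-22 cell line, measured with a cell viability readout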
Description: SANGER: Inhibition of human EW-22 cell growth in a cell viability assay.

BT-20 = assay: cells; type: functional, cell-based; settings: Homo sapiens;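 also: cell viability assay measuring suppression of growth in human BT-20 cells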
Description: SANGER: Inhibition of human BT-20 cell growth in a cell viability assay.

AN3-CA = assay: cells; type: functional, cell-based; settings: Homo sapiens;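 also: growth inhibition of human AN3-CA cells measured by a cell viability assay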
Description: SANGER: Inhibition of human AN3-CA cell growth in a cell viability assay.

MKN-7 = assay: cells; type: functional, cell-based; settings: Homo sapiens;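 also: growth inhibition of MKN-7 cells, read out with a cell viability assay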
Description: SANGER: Inhibition of human MKN7 cell growth in a cell viability assay.

RH-18 = assay: cells; type: functional, cell-based; settings: Homo sapiens, Rh18;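 also: growth inhibition of human RH-18 cells, read out with a cell viability assay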
Description: SANGER: Inhibition of human RH-18 cell growth in a cell viability assay.

TGBC11TKB = assay: cells; type: functional, cell-based; settings: Homo sapiens;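 also: growth inhibition of human TGBC11TKB cells, measured by a cell viability assay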
Description: SANGER: Inhibition of human TGBC11TKB cell growth in a cell viability assay.

CAL-54 = assay: cells; type: functional, cell-based; settings: Homo sapiens;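 also: growth inhibition of CAL-54 cells, read out by a viability measurement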
Description: SANGER: Inhibition of human CAL-54 cell growth in a cell viability assay.

MDA-MB-453 = assay: cells; type: functional, cell-based; settings: Homo sapiens
Description: SANGER: Inhibition of human MDA-MB-453 cell growth in a cell viability assay.

EPLC-272H = assay: cells; type: functional, cell-based; settings: Homo sapiens
Description: SANGER: Inhibition of human EPLC-272H cell growth in a cell viability assay.

D-423MG = assay: cells; type: functional, cell-based; settings: Homo sapiens
Description: SANGER: Inhibition of human D-423MG cell growth in a cell viability assay.

8505C = assay: cells; type: functional, cell-based; settings: Homo sapiens
Description: SANGER: Inhibition of human 8505C cell growth in a cell viability assay.

MEL-JUSO = assay: cells; type: functional, cell-based; settings: Homo sapiens;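 also: growth inhibition of human MEL-JUSO cells, read out with a cell viability assay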
Description: SANGER: Inhibition of human MEL-JUSO cell growth in a cell viability assay.

MDA-MB-175-VII = assay: cells; type: functional, cell-based; settings: Homo sapiens
OAW-42 = assay: cells; type: functional, cell-based; settings: Homo sapiens;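 also: growth inhibition of OAW-42 cells, read out with a cell viability assay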
Description: SANGER: Inhibition of human OAW-42 cell growth in a cell viability assay.

EW-7 = assay: SANGER: Inhibition of human EW-7 cell growth in a cell viability assay.; type: functional, cell-based
IPC-298 = assay: SANGER: Inhibition of human IPC-298 cell growth in a cell viability assay.; type: functional, cell-based

Measured: pIC50

O=C1NC(=O)c2c1c(-c1ccccc1Cl)cc1[nH]c3ccc(O)cc3c21
6.08: H9
6.32: P12-Ichikawa
not listed: 8505C | MEL-JUSO | MDA-MB-175-VII | OAW-42 | EW-7 | IPC-298
< 5.70: all other assays above

NC(=O)Nc1cc(-c2cccc(F)c2)sc1C(=O)N[C@H]1CCCNC1 [AZD-7762]
6.50: LCLC-97TM1
6.88: MEL-JUSO
6.08: AN3-CA
5.74: EGI-1
6.13: HCC38 | CAL-54
6.46: 8505C
6.55: H-EMC-SS
6.04: VMRC-RCZ
6.33: NCI-H1563
6.17: RERF-LC-MS
6.68: TI-73
6.57: HCC1395
6.83: D-566MG
7.06: HuP-T3
6.19: SKG-IIIa
6.21: 647-V
7.36: P12-Ichikawa
6.03: OAW-42
5.76: BT-20
6.54: CAKI-1
5.77: ME-180
6.66: EPLC-272H
6.91: H9
6.61: IGROV-1
6.01: CAL-33
6.48: D-423MG
5.92: MKN-7
6.23: BFTC-909 | EW-22
6.70: A-427
6.95: TGBC11TKB
not listed: SJRH30 | EW-7 | IPC-298
< 5.70: all other assays above

CO[C@@H]1[C@H](N(C)C(=O)c2ccccc2)C[C@H]2O[C@]1(C)n1c3ccccc3c3c4c(c5c6ccccc6n2c5c31)C(=O)NC4 [MIDOSTAURIN]
6.49: AN3-CA
< 6.29: EW-7 | SJRH30 | IPC-298 | HuP-T3 | EGI-1 | LCLC-97TM1 | IGROV-1
6.48: MCF7
6.68: CAL-54
7.07: HCC1395

NC1(c2ccc(-c3nc4ccn5c(=O)[nH]nc5c4cc3-c3ccccc3)cc2)CCC1 [MK-2206]
5.77: CAL-54
6.05: OAW-42
6.08: NB7
6.86: MDA-MB-175-VII
5.54: MCF7
6.41: H9
5.44: AN3-CA
6.26: IGROV-1
5.56: HCC1395
5.62: D-423MG
6.32: NCI-H1563
5.80: ME-180
6.93: P12-Ichikawa
5.43: SJRH30
6.30: H-EMC-SS
5.93: EPLC-272H
not listed: NCI-H1666 | MEL-JUSO | EW-7 | IPC-298
< 5.40: all other assays above

CC1(C)CCC(c2ccc(Cl)cc2)=C(CN2CCN(c3ccc(C(=O)NS(=O)(=O)c4ccc(N[C@H](CCN5CCOCC5)CSc5ccccc5)c(S(=O)(=O)C(F)(F)F)c4)cc3)CC2)C1 [NAVITOCLAX]
7.22: RH-18
6.33: EW-22
6.02: OAW-42
6.03: A-427
6.10: HCC38
7.11: P12-Ichikawa
not listed: MEL-JUSO | EW-7 | IPC-298
< 5.70: all other assays above

CN(C)CCOc1ccc(-c2nc(-c3ccncc3)c(-c3ccc4c(c3)CC/C4=N\O)[nH]2)cc1 [SB590885]
5.46: P12-Ichikawa
6.45: H-EMC-SS
6.40: H9
not listed: MEL-JUSO | EW-7 | IPC-298
< 5.30: all other assays above

NC(=O)c1ccc(N(C(N)=O)c2c(F)cccc2F)nc1-c1ccc(F)cc1F [VX-702]
not listed: H9 | EW-7 | IPC-298
< 5.70: all other assays above
